The structures appear in SMILES notation.

Chain of human PDE4D catalytic domain (Q08499 380-740 limits assumed): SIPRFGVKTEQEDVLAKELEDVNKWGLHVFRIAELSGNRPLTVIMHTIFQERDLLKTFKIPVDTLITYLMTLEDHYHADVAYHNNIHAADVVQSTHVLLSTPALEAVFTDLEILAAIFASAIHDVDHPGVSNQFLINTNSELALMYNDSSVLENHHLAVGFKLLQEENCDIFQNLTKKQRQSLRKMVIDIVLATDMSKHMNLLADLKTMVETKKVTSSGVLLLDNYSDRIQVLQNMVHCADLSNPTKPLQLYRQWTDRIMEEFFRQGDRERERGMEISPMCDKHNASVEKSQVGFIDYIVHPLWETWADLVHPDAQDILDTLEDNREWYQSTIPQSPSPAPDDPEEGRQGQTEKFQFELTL

The assay addresses human PDE4D catalytic domain (UniProt no. Q08499) (Homo sapiens (Human), UniProt Q08499). The experiment in a line: PDE4 assay (TR-FRET, FAM-cAMP cleavage). The assay is classed as biochemical. To be noted: human PDE4D catalytic domain; molar concentration giving 50% inhibition of substrate cleavage; read-out: PDE4 IC50 range. The method in brief:
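PDE4D catalytic domain ([…]) was incubated with unlabelled cAMP plus FAM-cAMP and titrated compound, stopped with binding buffer of metal-ion nanoparticles and Tb donor. AMP generation read by TR-FRET; IC50 as 50% inhibition of cleavage versus controls, reported as nM ranges.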
The IC50 is the concentration at which inhibition is half-maximal. With `CCc1nn(CCCOC(=O)c2ccc(S(=O)(=O)N(C)C)cc2)c2c1C(=O)NCC1(CCOCC1)C2` [Example 131, 3-(3-ethyl-4-oxo-spiro[6,8-dihydro-5H-pyrazolo[4,3-c]azepine-7,4′-tetrahydropyran]-1-yl)propyl 4-(dimethylsulfamoyl) benzoate], the IC50 is less than 100 nM.

As to `CCc1nn(CCCOC(=O)c2ccc(S(=O)(=O)C3CCCC3)cc2)c2c1C(=O)NCC1(CCOCC1)C2` [Example 132, 3-(3-ethyl-4-oxo-spiro[6,8-dihydro-5H-pyrazolo[4,3-c]azepine-7,4′-tetrahydropyran]-1-yl)propyl 4-cyclopentylsulfonyl-benzoate], the half-maximal inhibitory concentration (IC50) was in the range of 100 to 500 nM. Regarding `CCc1nn(CCCOC(=O)c2ccc(C(F)(F)F)cc2C(F)(F)F)c2c1C(=O)NCC1(CCOCC1)C2` [Example 135, 3-(3-ethyl-4-oxo-spiro[6,8-dihydro-5H-pyrazolo[4,3-c]azepine-7,4′-tetrahydropyran]-1-yl)propyl 2,4-bis(trifluoromethyl) benzoate], the half-inhibitory concentration (IC50) was less than 100 nM. On to `CCc1nn(CCCOC(=O)c2ccc(C(F)(F)F)c(C(F)(F)F)c2)c2c1C(=O)NCC1(CCOCC1)C2` [Example 136, 3-(3-ethyl-4-oxo-spiro[6,8-dihydro-5H-pyrazolo[4,3-c]azepine-7,4′-tetrahydropyran]-1-yl)propyl 3,4-bis(trifluoromethyl) benzoate], for which the IC50 is less than 100 nM. On to `CCc1nn(CCCOC(=O)c2ccc(C(N)=O)cc2)c2c1C(=O)NCC1(CCOCC1)C2` [Example 140, 3-(3-ethyl-4-oxo-spiro[6,8-dihydro-5H-pyrazolo[4,3-c]azepine-7,4′-tetrahydropyran]-1-yl)propyl 4-carbamoylbenzoate], for which the half-inhibitory concentration (IC50) is less than 100 nM. On to `CCc1nn(CCCOC(=O)c2ccc(C(=O)NC)cc2)c2c1C(=O)NCC1(CCOCC1)C2` [Example 141, 3-(3-ethyl-4-oxo-spiro[6,8-dihydro-5H-pyrazolo[4,3-c]azepine-7,4′-tetrahydropyran]-1-yl)propyl 4-(methylcarbamoyl)benzoate], for which the 50% inhibitory concentration (IC50) was less than 100 nM. Regarding `CCNC(=O)c1ccc(C(=O)OCCCn2nc(CC)c3c2CC2(CCOCC2)CNC3=O)cc1` [Example 142, 3-(3-ethyl-4-oxo-spiro[6,8-dihydro-5H-pyrazolo[4,3-c]azepine-7,4′-tetrahydropyran]-1-yl)propyl 4-(ethylcarbamoyl)benzoate], the IC50 is less than 100 nM. For `CCc1nn(CCCOC(=O)c2ccc(C(=O)N(C)C)cc2)c2c1C(=O)NCC1(CCOCC1)C2` [Example 143, 3-(3-ethyl-4-oxo-spiro[6,8-dihydro-5H-pyrazolo[4,3-c]azepine-7,4′-tetrahydropyran]-1-yl)propyl 4-(dimethylcarbamoyl)-benzoate] the value was 100 to 500 nM; for `CCc1nn(CCCOC(=O)c2ccc(C(=O)NC(C)C)cc2)c2c1C(=O)NCC1(CCOCC1)C2` [Example 144, 3-(3-ethyl-4-oxo-spiro[6,8-dihydro-5H-pyrazolo[4,3-c]azepine-7,4′-tetrahydropyran]-1-yl)propyl 4-(isopropylcarbamoyl)-benzoate], less than 100 nM; for `CCc1nn(CCCOC(=O)c2ccc(C(=O)N3CCCC3)cc2)c2c1C(=O)NCC1(CCOCC1)C2` [Example 145, 3-(3-ethyl-4-oxo-spiro[6,8-dihydro-5H-pyrazolo[4,3-c]azepine-7,4′-tetrahydropyran]-1-yl)propyl 4-(pyrrolidine-1-carbonyl)benzoate], 100 to 500 nM. For `CCc1nn(CCCOC(=O)c2ccc(C(=O)N3CCCCC3)cc2)c2c1C(=O)NCC1(CCOCC1)C2` [Example 146, 3-(3-ethyl-4-oxo-spiro[6,8-dihydro-5H-pyrazolo[4,3-c]azepine-7,4′-tetrahydropyran]-1-yl)propyl 4-(piperidine-1-carbonyl)benzoate] the value was less than 100 nM; for `CCc1nn(CCCOC(=O)c2ccc(C(=O)N3CCOCC3)cc2)c2c1C(=O)NCC1(CCOCC1)C2` [Example 147, 3-(3-ethyl-4-oxo-spiro[6,8-dihydro-5H-pyrazolo[4,3-c]azepine-7,4′-tetrahydropyran]-1-yl)propyl 4-(morpholine-4-carbonyl)benzoate], 100 to 500 nM; for `CCc1nn(CCCOC(=O)c2ccc(C(=O)N3CCN(C)CC3)cc2)c2c1C(=O)NCC1(CCOCC1)C2` [Example 148, 3-(3-ethyl-4-oxo-spiro[6,8-dihydro-5H-pyrazolo[4,3-c]azepine-7,4′-tetrahydropyran]-1-yl)propyl 4-(4-methylpiperazine-1-carbonyl)benzoate], 100 to 500 nM.

As for `CCc1nn(CCCOC(=O)c2ccc(C(=O)N3CCN(C(C)=O)CC3)cc2)c2c1C(=O)NCC1(CCOCC1)C2` [Example 149, 3-(3-ethyl-4-oxo-spiro[6,8-dihydro-5H-pyrazolo[4,3-c]azepine-7,4′-tetrahydropyran]-1-yl)propyl 4-(4-acetylpiperazine-1-carbonyl)benzoate], the IC50 was in the range of 100 to 500 nM. Regarding `CCc1nn(CCCOC(=O)c2cccc(C(N)=O)c2)c2c1C(=O)NCC1(CCOCC1)C2` [Example 150, 3-(3-ethyl-4-oxo-spiro[6,8-dihydro-5H-pyrazolo[4,3-c]azepine-7,4′-tetrahydropyran]-1-yl)propyl 3-carbamoylbenzoate], the half-inhibitory concentration (IC50) was less than 100 nM. Turning to `CCc1nn(CCCOC(=O)c2cccc(C(=O)NC)c2)c2c1C(=O)NCC1(CCOCC1)C2` [Example 151, 3-(3-ethyl-4-oxo-spiro[6,8-dihydro-5H-pyrazolo[4,3-c]azepine-7,4′-tetra-hydropyran]-1-yl)propyl 3-(methylcarbamoyl)benzoate], the IC50 was less than 100 nM.

`CCNC(=O)c1cccc(C(=O)OCCCn2nc(CC)c3c2CC2(CCOCC2)CNC3=O)c1` [Example 152, 3-(3-ethyl-4-oxo-spiro[6,8-dihydro-5H-pyrazolo[4,3-c]azepine-7,4′-tetrahydropyran]-1-yl)propyl 3-(ethylcarbamoyl)benzoate]: the concentration for half-maximal inhibition (IC50) was less than 100 nM. For `CCc1nn(CCCOC(=O)c2cccc(C(=O)N(C)C)c2)c2c1C(=O)NCC1(CCOCC1)C2` [Example 153, 3-(3-ethyl-4-oxo-spiro[6,8-dihydro-5H-pyrazolo[4,3-c]azepine-7,4′-tetrahydropyran]-1-yl)propyl 3-(dimethylcarbamoyl)-benzoate], the half-maximal inhibitory concentration (IC50) is less than 100 nM.

On to `CCc1nn(CCCOC(=O)c2cccc(C(=O)NC(C)C)c2)c2c1C(=O)NCC1(CCOCC1)C2` [Example 154, 3-(3-ethyl-4-oxo-spiro[6,8-dihydro-5H-pyrazolo[4,3-c]azepine-7,4′-tetrahydropyran]-1-yl)propyl 3-(isopropylcarbamoyl)-benzoate], for which the IC50 was less than 100 nM. As for `CCc1nn(CCCOC(=O)c2cccc(C(=O)N3CCCC3)c2)c2c1C(=O)NCC1(CCOCC1)C2` [Example 155, 3-(3-ethyl-4-oxo-spiro[6,8-dihydro-5H-pyrazolo[4,3-c]azepine-7,4′-tetrahydropyran]-1-yl)propyl 3-(pyrrolidine-1-carbonyl)benzoate], the IC50 was less than 100 nM. Regarding `CCc1nn(CCCOC(=O)c2cccc(C(=O)N3CCCCC3)c2)c2c1C(=O)NCC1(CCOCC1)C2` [Example 156, 3-(3-ethyl-4-oxo-spiro[6,8-dihydro-5H-pyrazolo[4,3-c]azepine-7,4′-tetrahydropyran]-1-yl)propyl 3-(piperidine-1-carbonyl)benzoate], the IC50 is less than 100 nM. As to `CCc1nn(CCCOC(=O)c2cccc(C(=O)N3CCOCC3)c2)c2c1C(=O)NCC1(CCOCC1)C2` [Example 157, 3-(3-ethyl-4-oxo-spiro[6,8-dihydro-5H-pyrazolo[4,3-c]azepine-7,4′-tetrahydropyran]-1-yl)propyl 3-(morpholine-4-carbonyl)benzoate], the IC50 is less than 100 nM.

With `CCc1nn(CCCOC(=O)c2cccc(C(=O)N3CCN(C)CC3)c2)c2c1C(=O)NCC1(CCOCC1)C2` [Example 158, 3-(3-ethyl-4-oxo-spiro[6,8-dihydro-5H-pyrazolo[4,3-c]azepine-7,4′-tetrahydropyran]-1-yl)propyl 3-(4-methylpiperazine-1-carbonyl)benzoate], the IC50 is 100 to 500 nM. With `CCc1nn(CCCOC(=O)c2cccc(C(=O)N3CCN(C(C)=O)CC3)c2)c2c1C(=O)NCC1(CCOCC1)C2` [Example 159, 3-(3-ethyl-4-oxo-spiro[6,8-dihydro-5H-pyrazolo[4,3-c]azepine-7,4′-tetrahydropyran]-1-yl)propyl 3-(4-acetylpiperazine-1-carbonyl)benzoate] the figure was less than 100 nM; with `CCc1nn(C[C@@H](C)COC(=O)C(C)C)c2c1C(=O)NCC1(CCOCC1)C2` [Example 160, [(2R)-3-(3-ethyl-4-oxo-spiro[6,8-dihydro-5H-pyrazolo[4,3-c]azepine-7,4′-tetrahydropyran]-1-yl)-2-methyl-propyl] 2-methylpropanoate], less than 100 nM. For `CCc1nn(C[C@@H](C)COC(=O)C2CCCC2)c2c1C(=O)NCC1(CCOCC1)C2` [Example 161, [(2R)-3-(3-ethyl-4-oxo-spiro[6,8-dihydro-5H-pyrazolo[4,3-c]azepine-7,4′-tetrahydropyran]-1-yl)-2-methyl-propyl] cyclopentanecarboxylate] the value was less than 100 nM; for `CCc1nn(C[C@@H](C)COC(=O)C(CC)CC)c2c1C(=O)NCC1(CCOCC1)C2` [Example 162, [(2R)-3-(3-ethyl-4-oxo-spiro[6,8-dihydro-5H-pyrazolo[4,3-c]azepine-7,4′-tetrahydropyran]-1-yl)-2-methyl-propyl] 2-ethylbutanoate], less than 100 nM; for `CCc1nn(C[C@@H](C)COC(=O)c2ccccc2)c2c1C(=O)NCC1(CCOCC1)C2` [Example 163, [(2R)-3-(3-ethyl-4-oxo-spiro[6,8-dihydro-5H-pyrazolo[4,3-c]azepine-7,4′-tetrahydropyran]-1-yl)-2-methyl-propyl] benzoate], less than 100 nM. With `CCc1nn(C[C@@H](C)COC(=O)c2ccc(C)cc2)c2c1C(=O)NCC1(CCOCC1)C2` [Example 164, [(2R)-3-(3-ethyl-4-oxo-spiro[6,8-dihydro-5H-pyrazolo[4,3-c]azepine-7,4′-tetrahydropyran]-1-yl)-2-methyl-propyl] 4-methylbenzoate] the figure was less than 100 nM.

The values are drawn from patent US10906915B2, “Substituted pyrazoloazepin-4-ones and their use as phosphodiesterase inhibitors” (LEO Pharma A/S, priority 2016, dated 2021).
